Test results from patent US8530177B2, “Chloral hydrate detection” (Randox Laboratories Limited, priority 2010, dated 2013).
Converted amounts (≈) assume the structure as drawn.

Experiments:
[1] = twenty four hours following a single oral dose; cited from earlier work
[2] = average person, drinking water guidance; cited from earlier work
[3] = tested on: antibody of the invention (polyclonal IgG raised against Immunogen II, TCG-BTG); test: Competitive ELISA for TCG: cross-reactivity and specificity of the antibody; type: binding, sheep; conditions: for IC50 = standard concentration which produces 50% B/B0: hapten A-HRP conjugate
Procedure: TCG was coupled to bovine thyroglobulin (Immunogen II, Example 5). The resulting immunogen was administered to adult sheep on a monthly basis to provide target-specific polyclonal antisera. IgG was extracted from the antisera via caprylic acid/ammonium sulphate precipitation of immunoglobulin. Microtitre plates (Thermo Scientific, 468667) were coated with antibody (125 μl) in coating buffer (10 mM Tris pH 8.5) at 37° C. for 2 hours. Antibody was coated at 1.25 μg/ml. The plates were then washed. 50 μl of sample/standard (trichloroethyl glucuronide, Randox LK811; chloral hydrate, Sigma C8383-100 g; trichloroacetic acid, Fisher Scientific T/3000/50; ETG, Randox LK589) was added to the appropriate wells in triplicate, followed by 75 μl of hapten A-HRP conjugate at ¼K and incubated at 25° C. for 1 hour. The plates were then washed and 125 μl of TMB (Randox, 4380-15) was added to each well and left at room temperature for 20 mins in the dark. The reaction was stopped using 125 μl of 0.2M sulphuric acid. The absorbances were read at 450 nm with an ELISA microplate reader (BIO-TEK Instruments, Elx800) and the means calculated. Antibody specificity and sensitivity were then determined.
Competitive ELISA results in the Table 1 below highlight the specificity of the antibody of the invention towards TCG.

[4] = metabolite of chloral hydrate; cited from earlier work

## OC(O)C(Cl)(Cl)Cl [Chloral Hydrate, 2,2,2-trichloroethanediol]
[1]
  excreted in the urine as TCG: ~28%
  excreted in the urine as trichloroethanol: approximately 0.7%
[2]
  Tolerable Daily Intake (TDI): 0.3 mg/day

## O=C(O)C(Cl)(Cl)Cl [Trichloroacetic Acid, trichloroacetic acid]
[3]; competitive ELISA
  % CR = percentage cross-reactivity based on 100% specificity to TCG: <<0.69%
  IC50 = standard concentration which produces 50% B/B0: >>2000 ng/ml
[3]; standard 31.25 ng/ml
  % B/B0: 91.2%
  A450 (absorbance at 450 nm): 1.372
[3]; standard 62.5 ng/ml
  % B/B0: 92.5%
  A450 (absorbance at 450 nm): 1.391
[3]; standard 125 ng/ml
  % B/B0: 92.4%
  A450 (absorbance at 450 nm): 1.389
[3]; standard 250 ng/ml
  % B/B0: 87.2%
  A450 (absorbance at 450 nm): 1.312
[3]; standard 500 ng/ml
  % B/B0: 85.4%
  A450 (absorbance at 450 nm): 1.284
[3]; standard 1000 ng/ml
  % B/B0: 81.8%
  A450 (absorbance at 450 nm): 1.230
[3]; standard 2000 ng/ml
  % B/B0: 72.7%
  A450 (absorbance at 450 nm): 1.094
[4]
  half-life: approximately 4 days

## O=C(O)[C@H]1O[C@@H](OCC(Cl)(Cl)Cl)[C@H](O)[C@@H](O)[C@@H]1O [TCG, trichloroethanol glucuronide]
[3]; competitive ELISA
  % CR = percentage cross-reactivity based on 100% specificity to TCG: 100%
  IC50 = standard concentration which produces 50% B/B0: 13.724 ng/mL (≈ 0.0422 µM)
[3]; standard 1.25 ng/ml
  % B/B0: 86.6%
  A450 (absorbance at 450 nm): 1.313
[3]; standard 2.5 ng/ml
  % B/B0: 81.0%
  A450 (absorbance at 450 nm): 1.228
[3]; standard 5 ng/ml
  % B/B0: 70.0%
  A450 (absorbance at 450 nm): 1.061
[3]; standard 10 ng/ml
  % B/B0: 57.5%
  A450 (absorbance at 450 nm): 0.872
[3]; standard 20 ng/ml
  % B/B0: 42.3%
  A450 (absorbance at 450 nm): 0.641
[3]; standard 40 ng/ml
  % B/B0: 30.7%
  A450 (absorbance at 450 nm): 0.465
[3]; standard 80 ng/ml
  % B/B0: 24.6%
  A450 (absorbance at 450 nm): 0.373

## CCO[C@@H]1O[C@H](C(=O)O)[C@@H](O)[C@H](O)[C@H]1O [EtG, ethyl glucuronide]
[3]; competitive ELISA
  % CR = percentage cross-reactivity based on 100% specificity to TCG: <<0.69%
  IC50 = standard concentration which produces 50% B/B0: >>2000 ng/ml
[3]; competitive ELISA, Table 1
  cross-reactivity with the antibody of the invention (in words): does not cross-react
[3]; standard 31.25 ng/ml
  % B/B0: 86.7%
  A450 (absorbance at 450 nm): 1.183
[3]; standard 62.5 ng/ml
  % B/B0: 83.9%
  A450 (absorbance at 450 nm): 1.144
[3]; standard 125 ng/ml
  % B/B0: 84.8%
  A450 (absorbance at 450 nm): 1.157
[3]; standard 250 ng/ml
  % B/B0: 82.8%
  A450 (absorbance at 450 nm): 1.130
[3]; standard 500 ng/ml
  % B/B0: 80.2%
  A450 (absorbance at 450 nm): 1.094
[3]; standard 1000 ng/ml
  % B/B0: 75.6%
  A450 (absorbance at 450 nm): 1.031
[3]; standard 2000 ng/ml
  % B/B0: 69.6%
  A450 (absorbance at 450 nm): 0.950
